Laboratory results published in publication PMC13499021, “Cellular Assays for Dynamic Quantification of Deubiquitinase Activity and Inhibition” (Journal of molecular biology, 2023).

Legend:
Assay type in all cases: cell-based, SARS-CoV-2
SARS2 PL^pro L162F = tested on: SARS2 PL^pro L162F
SARS2 PL^pro N267D = tested on: SARS2 PL^pro N267D
SARS2 PL^pro N267K = tested on: SARS2 PL^pro N267K
SARS2 PL^pro Q269R = tested on: SARS2 PL^pro Q269R
SARS2 PL^pro P248L = tested on: SARS2 PL^pro P248L
SARS2 PL^pro Y264H = tested on: SARS2 PL^pro Y264H
SARS2 PL^pro Y268C = tested on: SARS2 PL^pro Y268C
SARS2 PL^pro Y268H = tested on: SARS2 PL^pro Y268H

For GRL0617, the “increase in IC50” value (SARS2 PL^pro L162F) was about 8 fold, the “impact of mutation on GRL0617 potency” value (SARS2 PL^pro N267D) was “little impact” and the “impact of mutation on GRL0617 potency” value (SARS2 PL^pro N267K) was “little impact”. For the same substance, the “impact of mutation on GRL0617 potency” value (SARS2 PL^pro Q269R) was “little impact”, the decrease in potency (SARS2 PL^pro P248L) was over 10 fold and the “resistance phenotype in dose response curves” value (“resistance phenotype” below) (SARS2 PL^pro P248L) was “near-complete resistance”. For the same substance, the decrease in potency (SARS2 PL^pro Y264H) was over 10 fold, the “resistance phenotype” value (SARS2 PL^pro Y264H) was “near-complete resistance” and the decrease in potency (SARS2 PL^pro Y268C) was over 10 fold. For the same substance, the “resistance phenotype” value (SARS2 PL^pro Y268C) was “near-complete resistance” and the decrease in potency (SARS2 PL^pro Y268H) was over 10 fold.
